Assay results published in article PMC4113009, “Dihydroisoxazole inhibitors of Anopheles gambiae seminal transglutaminase AgTG3” (Malaria Journal, 2014).
Where two headings read alike, the source gives them in different places.

What was measured:
AgTG3 [1] = molecular target: T1, AgTG3 (Anopheles gambiae, UniProt D2K8K8); test: biochemical; details: for Activity against AgTG3 in dose–response assay: up to 100 μM; for Inhibition of AgTG3 in primary screen: 100 μM, triplicate
Procedure: Plugin-C (25 μg/well) was incubated in black 96-well Ni-coated plates (Pierce 15342) for 2 h at room temperature or overnight at 4°C. Plates were washed three times with 200 μL of TBS and loaded with 0.5 μg of AgTG3 in 50 μL TBS buffer. DHI inhibitors were added for 1 h to block the enzyme, followed by 50 μL of 2× assay buffer (2× TBS, 20 mM CaCl2, 100 μM FITC-CAD, 2 mM DTT). Wells were incubated for 60 min at room temperature, washed three times with 200 μL of TBS, and filled to a final volume of 100 μL for fluorescence measurements in a microplate reader (Biotek Synergy 2). The z-score was calculated based on the mean and standard deviation of three replicates of inhibitor compared to a DMSO control, zi=x¯DMSO-x¯i/σDMSO+σi .
The targeted chemical library was screened for inhibition of AgTG3 at 100 μM in a FITC-CAD plate assay (Figure 3A), performed in triplicate as previously described. Hit-calling was based on >67% decrease in fluorescence compared to DMSO and z > 5. Seven compounds fulfilled these criteria in the primary assay.
To verify the results of this preliminary assay, dose–response curves in the range of 0.5–100 μM were determined for 27 structurally related compounds within the targeted library (Additional file 3: Table S2 and Additional file 4: Table S3). […] Selected stereoisomers present in the targeted library were compared in equivalent dose–response assays. Inhibition of AgTG3 was specific for the (S)-DHI isomer of 1 (Figure 4A), the (R) isomer (4) displaying no activity (IC50 > 100 μM).

AgTG3 [2] = molecular target: T1, AgTG3; test: AgTG3 plugin cross-linking assay (SDS-PAGE, FITC-CAD); type: biochemical; details: for Inhibition of plugin-C cross-linking by AgTG3 (controls): 10 mM EDTA, 50 mM IA, 5 mM CaCl2
Procedure: Recombinant AgTG3 was pre-incubated with 100 μM inhibitors overnight at room temperature. AgTG3, with and without pretreatment with inhibitors (1 μg), was added to plugin-C (20 μg) and 0.5 mM FITC-cadaverine (FITC-CAD) in 25 mM HEPES, pH 7.5, 10 mM CaCl2, 1 mM DTT. The reaction was incubated at room temperature for 2 h and quenched by heat denaturation of the proteins in the presence of Laemmli buffer. The extent of cross-linking was analysed by sodium dodecyl sulphate-polyacrylamide gel electrophoresis (SDS-PAGE). The gel was scanned using Alpha Imager 2200 software.
Additional assays were performed to examine whether compounds 1 and 3 would inhibit the cross-linking of plugin-C by AgTG3 in solution, with FITC-CAD for fluorescent detection of plugin-C. Results were assessed by SDS/PAGE and UV illumination to detect FITC-CAD (Figure 7). […] In the presence of enzyme, substrate and calcium a ladder of fluorescent bands of increasing molecular weight (MW) is observed (lane 4), corresponding to cross-linked oligomers of plugin also labeled by FITC-CAD. […] However, the levels of AgTG3 in solution assays are higher in the cross-linking assay than the primary screen. The levels of plugin-C were also higher, which competes with slow-binding irreversible inhibitors such as 1 and 3 for the active site of AgTG3.
Figure 7 Inhibition of plugin cross-linking by DHI inhibitors. Fluorescent image of SDS-PAGE for FITC-cadaverine labeling and cross-linking of plugin by AgTG3. Lanes (1–4): (1) AgTG3, (2) Plugin-C, (3) AgTG3 and plugin-C, (4) AgTG3, plugin-C, and 5 mM CaCl2. Lanes (5–8): AgTG3, plugin-C, 5 mM CaCl2 and (5) 10 mM EDTA, (6) 50 mM IA, (7) 100 μM 1, (8) 100 μM 3. (below) Coomassie stain indicating relative levels of monomeric Plugin-C.

[3] = parameters: method as in PMID 21275056; details: 50 mg/kg, intraperitoneal injection; cited from earlier work
[4] = test system: model of human African trypanosomiasis; parameters: method as in PMID 21275056; details: cited from earlier work
Drosophila = test system: Drosophila; parameters: method as in PMID 22996645; details: delivered orally ad libitum, 10 μM in agar; cited from earlier work
tumor model = test system: tumor model; parameters: method as in PMID 22996645; details: cited from earlier work
human caspase-1 = molecular target: T2, human caspase-1 (Homo sapiens, UniProt P29466); test: Cysteine protease inhibition assay, caspase-1 (Ac-YVAD-pNA); type: biochemical; details: 3 at 100 μM, compared to a DMSO control, chromogenic assay
T2 construct: purchased Abcam
T2 sequence (P29466 120-297 limits assumed): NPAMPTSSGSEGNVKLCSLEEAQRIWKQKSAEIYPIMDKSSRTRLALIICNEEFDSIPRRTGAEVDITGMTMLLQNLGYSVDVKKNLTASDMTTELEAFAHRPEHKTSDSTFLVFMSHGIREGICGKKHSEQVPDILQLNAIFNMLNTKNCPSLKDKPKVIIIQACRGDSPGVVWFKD
T2 sequence (P29466 317-404 limits assumed): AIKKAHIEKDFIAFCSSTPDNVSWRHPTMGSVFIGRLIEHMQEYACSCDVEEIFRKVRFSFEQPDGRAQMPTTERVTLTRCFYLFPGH
Procedure: The activity of caspase-1 was determined by use of chromogenic substrate Ac-YVAD-pNA (Enzo Life Sciences, NY, USA). The assay was performed by adding 45 μL of 1 Unit caspase-1 (Abcam, MA, USA) and 5 μL of Ac-YVAD-pNA (final concentration, 5 μM) to 50 μL assay buffer (50 mM HEPES pH 7.4, 10 mM DTT, 1 mM EDTA, 0.1% CHAPS, 20% glycerol). Substrate cleavage after 1 h incubation at 37°C was measured by […] absorbance at 400 nm in a benchtop UV/Vis spectrophotometer (UV1800, Shimadzu, Kyoto, Japan).
(§1) Transglutaminases and cysteine proteases have a similar catalytic mechanism involving an active site cysteine and formation of a thioacyl intermediate. […] To test this hypothesis, the inhibition of two cysteine proteases, human caspase-1 and recombinant tobacco etch virus (TEV) protease by 3 at 100 μM were tested using a chromogenic and SDS-PAGE assay, respectively (Figure 9). […] Neither human caspase-1 nor TEV are endogenous proteins in A. gambiae, which may well contain other endogenous targets of 1–3, not least the two other transglutaminases in the A. gambiae genome.

[5] = molecular target: T3, recombinant tobacco etch virus (TEV) protease (Tobacco etch virus, UniProt P04517); test: Cysteine protease inhibition assay, TEV protease (GST-gp78 cleavage, SDS-PAGE); type: biochemical; details: 3 at 100 μM, compared to a DMSO control
T3 construct: recombinant tobacco etch virus (TEV) protease
T3 sequence (P04517 2038-2279): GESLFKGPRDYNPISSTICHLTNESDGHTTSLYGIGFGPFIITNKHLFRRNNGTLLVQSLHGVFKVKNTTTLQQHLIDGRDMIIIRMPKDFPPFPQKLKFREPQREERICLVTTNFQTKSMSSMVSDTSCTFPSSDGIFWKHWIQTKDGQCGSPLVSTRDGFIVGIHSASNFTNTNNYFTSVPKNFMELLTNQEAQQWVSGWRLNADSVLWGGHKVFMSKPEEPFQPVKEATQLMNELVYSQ
Procedure: The activity of recombinant tobacco etch virus (TEV) protease was determined by cleavage of a fusion protein containing a TEV cleavage site between GST and a 17 kDa fragment of human gp78. TEV and GST-gp78 were incubated at 37°C for 10 min at a substrate:enzyme mass ratio of 10:1. The reaction was stopped by adding 3× loading buffer (150 mM Tris–HCl pH 6.8, 300 mM DTT, 6% (w/v) SDS, 0.06% (w/v) bromophenol blue, 30% (v/v) glycerol). Samples were heated at 95°C for 3 min and separated by 4–20% gradient SDS-PAGE.
as §1

hTG2 = details: cited from earlier work
[6] = dose–response curves in the range of 0.5–100 μM, FITC-CAD plate assay, read-out: IC50 for inhibition of AgTG3
[7] = dose–response, 27 dihydroisoxazole inhibitors, read-out: IC50 (Supplementary Table 3, AgTG3)

T1 sequence (D2K8K8 entry or part of it): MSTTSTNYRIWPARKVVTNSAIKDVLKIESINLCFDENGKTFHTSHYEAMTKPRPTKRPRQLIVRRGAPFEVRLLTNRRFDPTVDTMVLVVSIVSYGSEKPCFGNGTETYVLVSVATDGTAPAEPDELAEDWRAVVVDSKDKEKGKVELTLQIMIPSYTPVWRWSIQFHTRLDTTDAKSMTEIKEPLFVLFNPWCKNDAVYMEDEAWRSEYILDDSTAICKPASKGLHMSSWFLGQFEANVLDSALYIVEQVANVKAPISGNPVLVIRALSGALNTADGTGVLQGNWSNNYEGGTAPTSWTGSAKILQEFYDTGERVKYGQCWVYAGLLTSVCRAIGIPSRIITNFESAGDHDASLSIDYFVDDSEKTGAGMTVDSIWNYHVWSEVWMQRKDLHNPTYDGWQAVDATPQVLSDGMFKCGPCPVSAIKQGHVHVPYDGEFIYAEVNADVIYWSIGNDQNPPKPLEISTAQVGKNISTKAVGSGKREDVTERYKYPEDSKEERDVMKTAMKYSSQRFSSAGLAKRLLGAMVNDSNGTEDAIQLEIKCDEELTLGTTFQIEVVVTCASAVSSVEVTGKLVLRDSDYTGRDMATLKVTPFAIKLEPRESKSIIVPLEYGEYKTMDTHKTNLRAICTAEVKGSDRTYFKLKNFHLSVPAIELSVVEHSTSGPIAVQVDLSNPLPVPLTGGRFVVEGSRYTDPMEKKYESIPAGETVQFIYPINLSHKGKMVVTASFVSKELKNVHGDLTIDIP

## O=C(N[C@@H](Cc1c[nH]c2ccc(F)cc12)C(=O)NC[C@@H]1CC(Br)=NO1)OCc1cnc2ccccc2c1
AgTG3 [1]; [6]
  IC50: 3.1 µM
AgTG3 [2]; 100 μM inhibitor, 5 mM CaCl2, intensity of high MW bands
  Inhibition of plugin-C cross-linking by AgTG3: inhibited the cross-linking of plugin

## O=C(N[C@@H](Cc1c[nH]c2ccc(F)cc12)C(=O)NC[C@@H]1CC(Br)=NO1)OCc1cnc2ccccc2n1
AgTG3 [1]; [6]
  IC50: 9.7 µM

## O=C(N[C@@H](Cc1c[nH]c2ccc(F)cc12)C(=O)NC[C@@H]1CC(Br)=NO1)OCc1ccnc2ccccc12
AgTG3 [1]; [6]
  IC50: 12.2 µM
AgTG3 [1]; [7]
  IC50: 12 µM

## CC(C)(C)OC(=O)N[C@@H](Cc1c[nH]c2ccc(F)cc12)C(=O)NC[C@@H]1CC(Br)=NO1
AgTG3 [1]; [6]
  IC50: 56 µM

## O=C(N[C@@H](Cc1c[nH]c2ccc(O)cc12)C(=O)NC[C@@H]1CC(Br)=NO1)OCc1cnc2ccccc2c1
AgTG3 [1]; [6]
  IC50: 4.3 µM

## O=C(N[C@@H](Cc1c[nH]c2ccc(F)cc12)C(=O)NC[C@H]1CC(Br)=NO1)OCc1cnc2ccccc2c1
AgTG3 [1]; [6]
  IC50: > 100 µM

## O=C(N[C@@H](Cc1csc2ccccc12)C(=O)NC[C@@H]1CC(Br)=NO1)OCc1cnc2ccccc2c1
AgTG3 [1]; [7]
  IC50: 18 µM

## N[C@H](C(=O)O)[C@@H]1CC(Br)=NO1 [3-bromoacivicin]
[3]
  Acute toxicity in mice: no acute toxicity
[4]
  Activity in vivo in a model of human African trypanosomiasis: active in vivo

## N[C@H](C(=O)O)[C@@H]1CC(Cl)=NO1 [Acivicin, acivicin]
Drosophila
  Toxicity to Drosophila: non-toxic
Tumor model
  Activity in vivo in a tumor model: active in vivo

## O=C(N[C@@H](Cc1ccccc1)C(=O)NC[C@@H]1CC(Br)=NO1)OCc1cnc2ccccc2c1 [Compound 5]
AgTG3 [1]; [6]
  IC50: 29 µM

## O=C(N[C@H](Cc1ccccc1)C(=O)NC[C@@H]1CC(Br)=NO1)OCc1cnc2ccccc2c1 [Compound 6]
AgTG3 [1]; [7]
  IC50: > 100 µM
AgTG3 [1]
  Activity against AgTG3 in dose–response assay: inactive

## O=C(N[C@@H](Cc1ccccc1F)C(=O)NC[C@@H]1CC(Br)=NO1)OCc1cnc2ccccc2c1 [Compound 8]
AgTG3 [1]; [6]
  IC50: ~30 µM
AgTG3 [1]; [7]
  IC50: 28 µM

## O=C(N[C@@H](Cc1ccc(I)cc1)C(=O)NC[C@@H]1CC(Br)=NO1)OCc1cnc2ccccc2c1 [Compound 11]
AgTG3 [1]; [7]
  IC50: > 100 µM
AgTG3 [1]
  Activity against AgTG3 in dose–response assay: inactive

## O=C(N[C@@H](Cc1ccc(O)cc1)C(=O)NC[C@H]1CC(Br)=NO1)OCc1ccccc1 [Compound D26]
AgTG3 [1]; [7]
  IC50: > 100 µM

## O=C(N[C@@H](Cc1ccc(O)cc1)C(=O)NC[C@@H]1CC(Br)=NO1)OCc1ccccc1 [Compound D27]
AgTG3 [1]; [7]
  IC50: > 100 µM

## O=C(N[C@@H](Cc1ccc(O)cc1)C(=O)NC[C@H]1CC(Br)=NO1)OCc1cnc2ccccc2c1 [Compound D62]
AgTG3 [1]; [7]
  IC50: > 100 µM

## O=C(N[C@@H](Cc1ccc(O)cc1)C(=O)NC[C@H]1CC(Br)=NO1)OCC1c2ccccc2-c2ccccc21 [Compound D71]
AgTG3 [1]; [7]
  IC50: > 100 µM

## O=C(N[C@@H](Cc1ccc(O)cc1)C(=O)NC[C@@H]1CC(Br)=NO1)OCC1c2ccccc2-c2ccccc21 [Compound D73]
AgTG3 [1]; [7]
  IC50: > 100 µM

## CN(C(=O)OCc1cnc2ccccc2c1)[C@@H](Cc1ccccc1)C(=O)NC[C@@H]1CC(Br)=NO1 [Compound D83]
AgTG3 [1]; [7]
  IC50: > 100 µM

## O=C(N[C@@H](Cc1ccc(-c2ccccc2)cc1)C(=O)NC[C@@H]1CC(Br)=NO1)OCc1cnc2ccccc2c1 [Compound D84]
AgTG3 [1]; [7]
  IC50: > 100 µM

## O=C(N[C@@H](CCc1ccccc1)C(=O)NC[C@@H]1CC(Br)=NO1)OCc1cnc2ccccc2c1 [Compound D85]
AgTG3 [1]; [7]
  IC50: > 100 µM

## O=C(N[C@@H](Cc1cccc2ccccc12)C(=O)NC[C@@H]1CC(Br)=NO1)OCc1cnc2ccccc2c1 [Compound D86]
AgTG3 [1]; [7]
  IC50: > 100 µM

## C[C@@](Cc1ccccc1)(NC(=O)OCc1cnc2ccccc2c1)C(=O)NC[C@@H]1CC(Br)=NO1 [Compound D91]
AgTG3 [1]; [7]
  IC50: > 100 µM

## C[C@@H](c1ccccc1)[C@H](NC(=O)OCc1cnc2ccccc2c1)C(=O)NC[C@@H]1CC(Br)=NO1 [Compound D94]
AgTG3 [1]; [7]
  IC50: 84 µM

## C#Cc1ccc(COC(=O)N[C@@H](Cc2ccc(O)cc2)C(=O)NC[C@@H]2CC(Br)=NO2)cc1 [Compound D142]
AgTG3 [1]; [7]
  IC50: > 100 µM

## [N-]=[N+]=Nc1ccc(COC(=O)N[C@@H](Cc2ccc(O)cc2)C(=O)NC[C@@H]2CC(Br)=NO2)cc1 [Compound D143]
AgTG3 [1]; [7]
  IC50: > 100 µM

## O=C(O)CN(CCN(CC(=O)O)CC(=O)O)CC(=O)O [EDTA, reference compound]
AgTG3 [2]
  Inhibition of plugin-C cross-linking by AgTG3 (controls): Cross-linking is inhibited

## NC(=O)CI [IA, iodoacetamide, reference compound]
AgTG3 [2]
  Inhibition of plugin-C cross-linking by AgTG3 (controls): Cross-linking is inhibited
Human caspase-1
  Inhibition of caspase-1: potent inhibitor of the enzyme
[5]
  Inhibition of TEV protease: potent inhibitor of the enzyme

## NNC(=O)CSc1nc2scc(-c3ccccc3)c2c(=O)n1-c1ccccc1 [LDN-27219, reference compound]
AgTG3 [1]
  Inhibition of AgTG3 in primary screen: neither the eight acylidene oxoindoles tested nor the thienopyrimidinone LDN-27219 inhibited AgTG3
AgTG3 [1]; listed as LD-217912
  Inhibition of AgTG3 in primary screen: neither acylidene oxoindoles nor the thienopyrimidinone LD-217912 showed any inhibition
hTG2
  IC50: < 10 µM
